The source of these data is ChEMBL document CHEMBL4414640, “Antiproliferative Pterocarpans and Coumestans from Lespedeza bicolor” (2019).

Assay [1] deals with Jurkat. The assay is described as follows: Antiproliferative activity against human Jurkat cells at 5 to 100 uM incubated for 48 hrs by MTS assay. It counts as functional, cell-based.
Assay [2] deals with Jurkat. The assay is described as follows: Induction of cell cycle arrest in human Jurkat cells assessed as accumulation at S phase at 10 uM incubated for 48 hrs by PI staining based cell counting method (reference value: 12.2%). The class given is functional.
The test system of assay [3] is Jurkat. The assay is described as follows: Induction of apoptosis in human Jurkat cells assessed as increase in PARP cleavage at 10 uM incubated for 48 hrs by Western blot analysis. It counts as functional, cell-based.
Assay [4] deals with Jurkat. Briefly: Induction of mitochondrial membrane potential loss in human Jurkat cells assessed as membrane potential at 10 uM incubated for 48 hrs by TMRM staining based flow cytometric analysis (reference value: 94.1%). The class given is functional.
For assay [5], the system named is Jurkat. Briefly: Induction of apoptosis in human Jurkat cells assessed as early apoptotic cells at 10 uM incubated 48 hrs by annexin-V and 7AAD staining based flow cytometry (reference value: 3.16%). The class given is functional.
Assay [6] has as its system Jurkat. The assay is described as follows: Induction of apoptosis in human Jurkat cells assessed as late apoptotic cells at 10 uM incubated 48 hrs by annexin-V and 7AAD staining based flow cytometry (reference value: 3.78%). It counts as functional.
For assay [7], the system named is Jurkat. The assay is described as follows: Induction of apoptosis in human Jurkat cells assessed as viable cells at 10 uM incubated 48 hrs by annexin-V and 7AAD staining based flow cytometry (reference value: 91.9%). Particulars: read-out: Activity. It counts as functional.
For assay [8], the system named is Jurkat. Briefly: Induction of apoptosis in human Jurkat cells assessed as necrotic cells at 10 uM incubated 48 hrs by annexin-V and 7AAD staining based flow cytometry (reference value: 1.16%). The class given is functional.
In assay [9] the test system is Jurkat. The assay is described as follows: Induction of cell cycle arrest in human Jurkat cells assessed as accumulation at G1 phase at 10 uM incubated for 48 hrs by PI staining based cell counting method (reference value: 71.4%). The class given is functional.
Assay [10] concerns Jurkat. The assay is described as follows: Induction of apoptosis in human Jurkat cells assessed as downregulation in BCL2 protein expression at 10 uM incubated for 48 hrs by Western blot analysis. It counts as functional, cell-based.
Assay [11] deals with Jurkat. Briefly: Induction of cell cycle arrest in human Jurkat cells assessed as accumulation at G2/M phase at 10 uM incubated for 48 hrs by PI staining based cell counting method (reference value: 16.7%). The class given is functional.
Assay [12] has as its system Jurkat. The assay is described as follows: Induction of apoptosis in human Jurkat cells at 10 uM incubated for 24 to 48 hrs by phase contrast microscopic method. The class given is functional, cell-based.

Calls of active or inactive are those of the source. No cut-off for these calls is given here.

For `COc1c(C/C=C(\C)CCC=C(C)C)c(O)cc(O)c1-c1oc2c3c(c(O)cc2c1C=O)OC(C)(C)C=C3`, the result in assay [1] was Active.

`COc1c(CC=C(C)C)c(O)cc(O)c1-c1oc2c3c(c(O)cc2c1C=O)OC(C)(C)C=C3`: the outcome in assay [1] was Active.

In the case of `COc1c(CC=C(C)C)c(O)cc2oc(=O)c3c4cc(O)c5c(c4oc3c12)C=CC(C)(C)O5`, in [1], the result was Active.

On to `COc1c(CC=C(C)C)c(O)cc2c1[C@@H]1Oc3c(ccc4c3C=CC(C)(C)O4)[C@@H]1CO2`, for which, in [1], the outcome was Active.

As to `COc1c(CC=C(C)C)c(O)cc2c1[C@@H]1Oc3c(ccc(O)c3CC=C(C)C)[C@@H]1CO2`, the outcome in assay [1] was Active.

For `COc1c(CC=C(C)C)c(O)cc2c1[C@@H]1Oc3c(cc(O)c4c3C=CC(C)(C)O4)[C@@H]1CO2`, the result in assay [1] was Active.

Consider `COc1c(CC=C(C)C)c(O)cc2oc(=O)c3c4cc(O)c(O)c(CC=C(C)C)c4oc3c12`, for which the Activity in assay [2] is 10.9%; in [4], 12.9%; in [5] it was 12.3%; in [6], 46.7%; in assay [8], 3.4%; in [9] it was 82.3%. Moreover, in [11], the Activity amounted to 7.05%. For the same molecule, the result in assay [3], in assay [1], in assay [10] and in [12] was Active. In [7], the viability at 10 µM was 37.6%.

For the molecule `COc1c(C/C=C(\C)CCC=C(C)C)c(O)cc2c1[C@@H]1Oc3c(cc(O)c4c3C=CC(C)(C)O4)[C@@H]1CO2`, the outcome in assay [1] was Active.

For `COc1cc2c(cc1O)OC1c3c(OC)cc(O)c(C/C=C(\C)CCC=C(C)C)c3OCC21` (stereo unspecified), the Activity came to 8.78% in assay [2]; 46.8% in [4]; 11.3% in [5]; 40.4% in assay [6]; 4.43% in [8]; 82.1% in assay [9]. Moreover, the Activity in assay [11] worked out at 9.3%. Moreover, the outcome in assay [3], in assay [1], in [10] and in assay [12] was Active. Further, the viability at 10 µM in assay [7] was 43.9%.
